# Source: patent US4711886A, “β-lactam derivatives as anti-inflammatory and antidegenerative agents” (Merck & Co., Inc., priority 1984, dated 1987)
# Read-outs that look alike come from different tables or passages of the source.
# Molecular target: T1, Human Polymorphonuclear Leukocyte Elastase (Homo sapiens, UniProt P08246)
# T1 construct: Crude extract of human polymorphonuclear leukocytes (PMN) containing elastase activity; endogenous in cells; host or cells: human polymorphonuclear leukocytes (crude extract)
# T1 sequence (P08246 30-247 limits assumed): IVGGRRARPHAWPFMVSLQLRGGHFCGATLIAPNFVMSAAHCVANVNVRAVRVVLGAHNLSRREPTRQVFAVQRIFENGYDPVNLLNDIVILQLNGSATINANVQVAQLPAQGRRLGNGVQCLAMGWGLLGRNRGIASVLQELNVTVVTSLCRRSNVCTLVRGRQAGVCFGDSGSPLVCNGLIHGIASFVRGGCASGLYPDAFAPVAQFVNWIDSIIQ
# Test: Inhibition of human polymorphonuclear leukocyte elastase via hydrolysis of N-t-Boc-alanyl-alanyl-prolyl-alanine-p-nitroanilide
# Format: biochemical
# Conditions: 50% inhibition of enzyme activity 2 minutes after zero time, crude PMN extract, Boc-AAPAN substrate, pH 7.5
# Procedure: Enzyme Assays for the Inhibition of Human Polymorphonuclear Leukocyte Elastase Via Hydrolysis of N-t-Boc-alanyl-alanyl-prolylalanine-p-nitroanilide
# 0.05M TES (N-tris[hydroxymethyl]methyl-2-amino-ethanesulfonic acid) buffer, pH 7.5.
# 0.2 mM N-t-Boc-alanyl-alanyl-prolyl-alanine-p-nitroanilide (Boc-AAPAN).
# To prepare substrate, the solid (m.w. 550) was first dissolved in 10.0 ml DMSO. Buffer at pH 7.5 was then added to a final volume of 100 ml.
# Crude extract of human polymorphonuclear leukocytes (PMN) containing elastase activity.
# Inhibitors (β-lactam derivatives) to be tested dissolved in DMSO just before use.
# To 1.0 ml of 0.2 mM Boc-AAPAN in a cuvette, 0.01-0.1 ml of DMSO with or without inhibitor was added. After mixing, a measurement was taken at 410 mμ to detect any spontaneous hydrolysis due to presence of test compound. 0.05 Milliliters of PMN extract was then added and the ΔOD/min at 410 mμ was measured and recorded. Beckman model 35 spectrophotometer was used.
# The elastase activity in the crude PMN extract may vary from one preparation to another. A control of each new batch is run, and the volume added in the assay procedure is adjusted according to activity.
# [1] = Table III, penems, read-out: IC50 (converted)
SMILES,IC50 [1] [µM],other results
CCSC1=C(C(=O)OCc2ccc([N+](=O)[O-])cc2)N2C(=O)C(C(C)OC(=O)OCc3ccccc3)C2S1 (stereo not shown),0.367,
CCSC1=C(C(=O)OCc2ccc([N+](=O)[O-])cc2)N2C(=O)C(C(C)O)C2S1 (stereo not shown),4.87,
COC1C(=O)N2C(C(=O)OCc3ccccc3)=C(COC(C)=O)SC12 (stereo not shown),11,
O=C(OCc1ccccc1)C1C(=CCO)OC2CC(=O)N21 (stereo not shown) [B1 = CH2 C6 H5],,"IC50 (Table IV, clavulanic acid series, read-out: IC50 (converted)): 10.4 µM"
"O=C(O)[C@H]1/C(=C/CO)O[C@@H]2CC(=O)N21 [clavulanic acid, reference compound]",,"IC50 (Table IV, clavulanic acid series): inactive"

# Now from value to compound, other results behind:
IC50 [1] [µM],SMILES,other results
6.55,CCOC1=C(C(=O)OCc2ccccc2)N2C(=O)CC2S1 (stereo not shown),
14.5,"CC1=C(C(=O)OCc2ccccc2)N2C(=O)C[C@H]2S1 [R1 = H, n = 0, M = CH3, B = OCH2 C6 H5, benzyl 2-methylpenem-3-carboxylate]",
